# In ChEMBL document CHEMBL4270539, “Fibrogenic Disorders in Human Diseases: From Inflammation to Organ Dysfunction” (J Med Chem, 2018):
# Legend:
# [1] = target: Sphingosine 1-phosphate receptor 2 (Rattus norvegicus, UniProt P47752); assay type: functional
# [2] = target: Sphingosine 1-phosphate receptor 2 (Homo sapiens, UniProt O95136); assay type: functional
# [3] = target: CREB-binding protein (Homo sapiens, UniProt Q92793)
# Chain of CREB-binding protein (Q92793 whole entry): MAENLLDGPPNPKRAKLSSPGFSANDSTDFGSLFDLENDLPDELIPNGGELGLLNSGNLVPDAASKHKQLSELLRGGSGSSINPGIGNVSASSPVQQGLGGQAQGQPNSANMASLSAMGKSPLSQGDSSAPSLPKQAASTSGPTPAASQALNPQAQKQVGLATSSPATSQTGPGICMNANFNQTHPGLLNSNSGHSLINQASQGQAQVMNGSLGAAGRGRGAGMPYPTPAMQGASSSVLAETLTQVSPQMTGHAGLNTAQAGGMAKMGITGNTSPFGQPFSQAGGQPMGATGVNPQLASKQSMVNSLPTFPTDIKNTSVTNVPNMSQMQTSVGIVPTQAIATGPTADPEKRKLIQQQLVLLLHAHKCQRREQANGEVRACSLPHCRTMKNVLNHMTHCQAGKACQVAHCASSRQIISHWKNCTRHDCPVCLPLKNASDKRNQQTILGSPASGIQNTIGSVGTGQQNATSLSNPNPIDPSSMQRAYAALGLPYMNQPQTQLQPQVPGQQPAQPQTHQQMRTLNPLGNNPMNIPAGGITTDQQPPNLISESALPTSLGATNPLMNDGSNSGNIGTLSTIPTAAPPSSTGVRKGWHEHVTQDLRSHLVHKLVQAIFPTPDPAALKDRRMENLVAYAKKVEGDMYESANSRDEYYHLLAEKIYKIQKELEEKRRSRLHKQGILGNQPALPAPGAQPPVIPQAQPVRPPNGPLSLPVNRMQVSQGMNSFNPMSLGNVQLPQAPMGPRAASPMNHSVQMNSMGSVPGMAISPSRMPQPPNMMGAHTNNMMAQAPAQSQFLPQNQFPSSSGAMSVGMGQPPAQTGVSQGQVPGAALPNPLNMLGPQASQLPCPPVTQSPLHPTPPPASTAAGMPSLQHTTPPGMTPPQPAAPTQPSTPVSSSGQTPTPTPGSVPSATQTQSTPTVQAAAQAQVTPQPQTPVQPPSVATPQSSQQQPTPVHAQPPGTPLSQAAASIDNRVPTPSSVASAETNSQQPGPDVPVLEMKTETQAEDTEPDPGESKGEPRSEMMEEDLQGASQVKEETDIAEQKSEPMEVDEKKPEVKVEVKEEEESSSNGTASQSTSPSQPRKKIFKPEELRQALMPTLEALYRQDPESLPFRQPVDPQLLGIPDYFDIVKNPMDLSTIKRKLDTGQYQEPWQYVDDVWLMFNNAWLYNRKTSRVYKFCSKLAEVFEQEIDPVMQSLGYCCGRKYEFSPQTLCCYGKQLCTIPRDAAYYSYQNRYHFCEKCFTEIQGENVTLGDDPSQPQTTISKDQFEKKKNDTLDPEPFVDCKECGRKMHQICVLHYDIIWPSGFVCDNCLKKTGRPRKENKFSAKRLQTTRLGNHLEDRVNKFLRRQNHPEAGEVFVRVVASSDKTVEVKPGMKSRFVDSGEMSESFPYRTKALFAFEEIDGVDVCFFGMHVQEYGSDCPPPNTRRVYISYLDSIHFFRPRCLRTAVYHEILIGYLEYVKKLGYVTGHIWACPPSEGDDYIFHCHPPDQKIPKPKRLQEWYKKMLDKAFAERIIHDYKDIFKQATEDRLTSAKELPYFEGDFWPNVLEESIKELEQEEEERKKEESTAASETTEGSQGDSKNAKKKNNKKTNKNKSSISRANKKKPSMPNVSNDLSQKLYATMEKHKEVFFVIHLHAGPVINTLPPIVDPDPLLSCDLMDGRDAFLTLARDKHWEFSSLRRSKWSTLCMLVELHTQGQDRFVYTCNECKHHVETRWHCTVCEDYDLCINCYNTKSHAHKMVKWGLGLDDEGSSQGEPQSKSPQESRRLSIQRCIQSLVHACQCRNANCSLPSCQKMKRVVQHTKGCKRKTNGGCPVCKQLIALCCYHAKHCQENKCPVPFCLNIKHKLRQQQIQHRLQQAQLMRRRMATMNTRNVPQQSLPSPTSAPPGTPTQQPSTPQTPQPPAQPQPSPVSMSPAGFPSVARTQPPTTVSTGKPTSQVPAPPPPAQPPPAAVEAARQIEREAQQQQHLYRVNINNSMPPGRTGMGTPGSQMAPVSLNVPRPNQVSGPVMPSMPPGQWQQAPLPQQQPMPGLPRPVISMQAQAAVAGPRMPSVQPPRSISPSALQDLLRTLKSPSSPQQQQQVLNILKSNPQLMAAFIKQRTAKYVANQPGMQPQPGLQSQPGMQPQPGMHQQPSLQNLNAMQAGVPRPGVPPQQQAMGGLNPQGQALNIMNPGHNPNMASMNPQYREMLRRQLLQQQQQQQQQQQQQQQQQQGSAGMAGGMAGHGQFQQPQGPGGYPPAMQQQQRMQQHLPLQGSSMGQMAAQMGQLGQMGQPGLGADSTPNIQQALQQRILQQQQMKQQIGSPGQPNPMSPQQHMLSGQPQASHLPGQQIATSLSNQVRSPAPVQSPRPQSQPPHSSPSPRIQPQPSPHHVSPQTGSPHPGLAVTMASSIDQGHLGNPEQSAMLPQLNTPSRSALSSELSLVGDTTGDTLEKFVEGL
# Chain of Sphingosine 1-phosphate receptor 2 (Rattus norvegicus, UniProt P47752) (P47752 whole entry): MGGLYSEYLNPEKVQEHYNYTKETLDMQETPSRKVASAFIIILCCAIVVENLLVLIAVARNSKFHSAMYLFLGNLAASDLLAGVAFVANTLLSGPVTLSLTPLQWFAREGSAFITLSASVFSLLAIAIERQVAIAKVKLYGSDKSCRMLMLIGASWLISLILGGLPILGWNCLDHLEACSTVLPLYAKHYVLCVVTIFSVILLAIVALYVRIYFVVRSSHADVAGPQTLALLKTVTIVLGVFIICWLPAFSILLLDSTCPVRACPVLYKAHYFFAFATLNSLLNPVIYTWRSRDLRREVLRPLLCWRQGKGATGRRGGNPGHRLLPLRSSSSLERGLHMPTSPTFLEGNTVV
# Chain of Sphingosine 1-phosphate receptor 2 (Homo sapiens, UniProt O95136) (O95136 whole entry): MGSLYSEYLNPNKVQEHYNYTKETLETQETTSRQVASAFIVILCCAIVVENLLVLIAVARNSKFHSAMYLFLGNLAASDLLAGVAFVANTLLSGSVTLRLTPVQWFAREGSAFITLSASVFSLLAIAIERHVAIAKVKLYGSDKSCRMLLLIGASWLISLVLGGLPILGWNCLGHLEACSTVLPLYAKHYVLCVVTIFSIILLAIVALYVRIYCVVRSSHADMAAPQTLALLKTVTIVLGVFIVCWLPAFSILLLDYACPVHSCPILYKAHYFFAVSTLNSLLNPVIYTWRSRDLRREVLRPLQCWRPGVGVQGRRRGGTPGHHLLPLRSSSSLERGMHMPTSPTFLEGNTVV
Compound,IC50 [1] [nM],IC50 [2] [nM],IC50 [3] [nM]
Cc1nn(C)c2nc(NNC(=O)Nc3cc(Cl)nc(Cl)c3)cc(C(C)C)c12,20,20,
O=C1[C@H](Cc2ccc(O)cc2)N2C(=O)CCN(C(=O)NCc3ccccc3)[C@H]2CN1Cc1cccc2ccccc12,,,3000
